Legend:
[1] = target: T1, huFAP (HT1080-huFAP cells) (Homo sapiens, UniProt Q12884); test: [^111In]In-FAPI-46 displacement assay on FAP-expressing cells; format: binding; details: 10^-9 M [^111In]In-FAPI-46, 45 min, n = 3, picture: nM ± 95% CI
T1 construct: expressed in transfected cells; host or cells: HT1080 (human sarcoma), stably transduced; provided by Prof; Dr. Uwe Haberkorn, University of Heidelberg
T1 sequence (Q12884 1-760): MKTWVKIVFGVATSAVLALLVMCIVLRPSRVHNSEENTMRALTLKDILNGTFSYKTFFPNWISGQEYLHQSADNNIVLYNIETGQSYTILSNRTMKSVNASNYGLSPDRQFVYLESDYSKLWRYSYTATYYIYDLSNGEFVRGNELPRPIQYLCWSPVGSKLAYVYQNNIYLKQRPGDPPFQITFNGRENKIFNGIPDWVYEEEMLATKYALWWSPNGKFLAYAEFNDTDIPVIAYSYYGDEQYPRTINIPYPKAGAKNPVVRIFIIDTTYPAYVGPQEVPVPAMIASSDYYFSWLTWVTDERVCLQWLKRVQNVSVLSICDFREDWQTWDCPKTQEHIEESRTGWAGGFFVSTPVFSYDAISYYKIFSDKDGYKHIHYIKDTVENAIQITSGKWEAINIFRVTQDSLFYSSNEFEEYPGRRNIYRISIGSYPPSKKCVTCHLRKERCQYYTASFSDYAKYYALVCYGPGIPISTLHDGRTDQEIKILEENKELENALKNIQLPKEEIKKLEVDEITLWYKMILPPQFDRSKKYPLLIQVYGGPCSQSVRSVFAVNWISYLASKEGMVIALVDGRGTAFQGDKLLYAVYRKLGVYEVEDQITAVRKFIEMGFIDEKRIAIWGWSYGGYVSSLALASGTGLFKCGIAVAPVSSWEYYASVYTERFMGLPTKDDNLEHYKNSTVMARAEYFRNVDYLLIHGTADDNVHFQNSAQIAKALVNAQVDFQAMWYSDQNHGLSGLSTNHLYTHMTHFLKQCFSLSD
Protocol: Cell experiments were performed with the human sarcoma HT1080 cell line, stably transduced with human FAP (HT1080-huFAP) which were kindly provided by Prof. Dr. Uwe Haberkorn from the University of Heidelberg. The wild type HT1080 (ATTC), hereafter HT080-WT, was used as a negative control. Additionally, the pancreatic stellate cells PS-1, obtained from Queen Mary University, were used as an endogenously FAP expressing cell line. HT1080-huFAP and HT1080-WT cells were cultured in DMEM Glutamax© (Gibco; Breda, The Netherlands) and the PS-1 cells were cultured in RPMI (Gibco). Both media were supplemented with 10% FBS (Gibco), 100 UI/mL penicillin, and 100 µg/mL streptomycin (Merck Life Science NV; Amsterdam, The Netherlands). All cell lines were regularly passaged at 80% confluence and cultured at 37 °C, 5% CO2.
In vitro displacement studies of eFAP-6 and eFAP-7, as well as specificity and uptake assays, were performed using HT0180-huFAP cells. One day prior to the assay 100,000 cells were seeded in a 12-well plate in triplicate. […] For the uptake assay, the cells were incubated with 1 nM [^111In]In-eFAP-6 or [^111In]In-FAPI-46 for different time points (5–120 min) in the presence and absence of 1 mM UAMC-1110 to determine the specificity of^111 radiotracer binding. In both assays, the cells were washed twice with PBS after incubation and were subsequently lysed using 1 M NaOH for 20 min. The cell lysates were collected and radioactivity was measured in a γ-counter (PerkinElmer), simultaneously with 100 µL of the radioactive incubation medium as a standard. […] Uptake was expressed as percentage added activity per 200,000 cells (% AA/200,000 cells), and specific uptake was corrected by subtracting the uptake measured in the block wells.
All statistical analyses were performed with GraphPad Prism version 9.0 (San Diego, California USA). All IC50 values were determined using a non-linear regression Log(inhibitor) vs. response analysis with variable slope (four parameters). […]

[2] = target: T2, huFAP (Homo sapiens, UniProt Q12884); test: Recombinant enzymatic inhibition assay, huFAP (Z-Gly-Pro-AMC); format: biochemical; details: n = 3, picture: nM ± 95% CI
T2 sequence (Q12884 1-760): T1 sequence (Q12884 1-760)
Protocol: All enzymatic assays were performed in black 384-well plates, and enzymatic activity was measured on a microplate reader, monitoring the fluorescence at λEX 350 nm/λEM 485 nm. […] Val-boroPro (10^− 4 M) and assay buffer served as a positive and negative control, respectively. To measure inhibition of PREP, 50 µL of the reaction mixture containing 1 µM Z-Gly-Pro-AMC and 10 ng PREP (R&D Systems; Minneapolis, MN, USA) were used. The enzymatic assay of DPP4 contained substrate (100 µM), DPP4 (Abcam; Cambridge, UK) (10 nM), assay buffer, and increasing concentrations of the inhibitors (10^− 10 M to 10^− 4 M). Sitagliptin (10^− 4 M) and assay buffer were used as a positive and negative control, respectively. H-Gly-Pro-AMC (100 µM) in assay buffer was used as a baseline control. The plates were analyzed in a Hidex Sense Microplate reader (Hidex; Turku, Finland) at 37 °C under dark conditions for 1 h (huFAP), 2 h (muFAP), or 30 min (PREP, DPP4). For all assays, the components were kept on ice before plating.
All statistical analyses were performed with GraphPad Prism version 9.0 (San Diego, California USA). All IC50 values were determined using a non-linear regression Log(inhibitor) vs. response analysis with variable slope (four parameters). For the in vivo results outliers were identified by a ROUT test (Q = 1%) and excluded. Next, a two-tailed student’s t-test was performed (*p < 0.05, **p < 0.01, ***p < 0.001). All experiments were performed in triplicate and repeated at least three times.

IC50 [1] [nM] | IC50 [2] [nM] | Structure (SMILES)
1 ± 0.36 | 4.23 ± 0.5 | CN1/C(=C/C=C/C=C/C2=[N+](CCCCCC(=O)NCCCOc3cccc4c(C(=O)NCC(=O)N5CC(F)(F)C[C@H]5C#N)ccnc34)c3ccc(S(=O)(=O)[O-])cc3C2(C)C)C(C)(C)c2cc(S(=O)(=O)O)ccc21 [eFAP-7, 1-(6-((3-((4-((2-((S)-2-cyano-4,4-difluoropyrrolidin-1-yl)-2-oxoethyl)carbamoyl)quinolin-8-yl)oxy)propyl)amino)-6-oxohexyl)-3,3-dimethyl-5-sulfo-2-((1E,3E)-5-((E)-1,3,3-trimethyl-5-sulfoindolin-2-ylidene)penta-1,3-dien-1-yl)-3H-indol-1-ium]
1.42 ± 0.29 | 3.87 ± 2.7 | CN(CCCN1CCN(C(=O)CN2CCN(CC(=O)O)CCN(CC(=O)O)CCN(CC(=O)O)CC2)CC1)c1ccc2nccc(C(=O)NCC(=O)N3CC(F)(F)C[C@H]3C#N)c2c1 [FAPI-46, reference compound]
0.62 ± 0.26 | 1.16 ± 0.04 | N#C[C@@H]1CC(F)(F)CN1C(=O)CNC(=O)c1ccnc2c(OCCCNC(=O)CN3CCN(CC(=O)O)CCN(CC(=O)O)CCN(CC(=O)O)CC3)cccc12 [eFAP-6, (S)-2,2',2''-(10-(2-((3-((4-((2-(2-cyano-4,4-difluoropyrrolidin-1-yl)-2-oxoethyl)carbamoyl)quinolin-8-yl)oxy)propyl)amino)-2-oxoethyl)-1,4,7,10-tetraazacyclododecane-1,4,7-triyl)triacetic acid]
